How the values were obtained:
human Alk-Smase [1] = biological target: T1, human Alk-Smase (Homo sapiens, UniProt Q6UWV6); assay: Alk-Smase activity in the presence of metal ions, detergents, bile salts, glutathione; assay type: biochemical
T1 construct: Human Alk-Smase has now been purified from small intestinal content; from tissue; host or cells: human small intestinal (ileostomy) content
T1 sequence (Q6UWV6 22-458): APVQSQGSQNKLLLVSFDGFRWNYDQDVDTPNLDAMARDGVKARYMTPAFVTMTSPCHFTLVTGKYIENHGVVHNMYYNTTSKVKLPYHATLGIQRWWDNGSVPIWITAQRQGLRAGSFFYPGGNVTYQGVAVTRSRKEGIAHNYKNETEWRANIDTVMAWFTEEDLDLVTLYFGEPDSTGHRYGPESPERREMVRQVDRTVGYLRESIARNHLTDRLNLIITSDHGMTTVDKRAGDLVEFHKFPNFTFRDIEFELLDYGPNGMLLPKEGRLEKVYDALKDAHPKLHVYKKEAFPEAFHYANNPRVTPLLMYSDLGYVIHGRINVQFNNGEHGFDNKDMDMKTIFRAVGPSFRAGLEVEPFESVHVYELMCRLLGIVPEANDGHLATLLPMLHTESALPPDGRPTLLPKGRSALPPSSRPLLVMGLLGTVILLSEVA
Method: As bile salts are important factors for lipid digestion, the effects of different bile salts on human Alk-Smase were investigated. […] The activities were determined in the presence of different concentrations of bile salts.

human Alk-Smase [2] = biological target: T1, human Alk-Smase; assay: as above; assay type: biochemical; remark: listed apart in the source
bacterial neutral Smase = details: reduced form
Cos-7 cells = assay: Alk-Smase activity of transfected cells (cell lysate and medium); assay type: cell-based
Method: Cos 7 cells are transfected with either the wild type of Alk-Smase cDNA (sequence 21-1397 of ID No 5, reading frame) which encodes Seq ID No 4, or transfected with the Alk-Smase cDNA sequence from 21-1285 (C-truncated), which encodes a 415 amino acid sequence (Seq ID No 6). After transfection, the Alk-Smase activity in the medium and in the cell lysate was determined.
pCMV-sports6-Smase is transfected into mammalian Cos-7 cells. To transfect the cells with pCMV-sports6-Smase 4×10^5 Cos-7 cells are seeded in a 25 cm^2 flask in 4 ml of Dulbecco's modified Eagle's medium with 10% heat inactivated fetal calf serum and 2 mM Glutamine.
The cells are incubated until 90% confluent.
Cells are then transfected with 5 microgram pCMV-sports6-Smase and 16 microgram lipofectamine 2000™ in each flask followed by incubation for 48 h.
Untransfected cells are exposed to lipofectamine and treated the same as above.
At the end of the incubation, medium is collected and cells are lysed by a 50 mM Tris-HCl buffer containing 1 mM PMSF, 2 mM EDTA, 0.5 mM Dtt, 10 microgram/ml leupeptin, 10 microgram/ml aprotinine and 10 mM TC.
Cells are kept on ice, e.g., for 10 minutes, and then sonicated for 10 sec.
After centrifugation at 12000 g for 10 minutes at 4° C., human Alk-Smase activity and protein concentrations were determined.
Cos-7 cells transfected with a mock-vector is used as a control.

[3] = Lysophospholipase test with 14C-palmitoyl labelled lysophosphatidylcholine, TLC separation; assay type: biochemical
Method: At present the most intriguing functional similarity between Alk-Smase and NPP is the earlier observation that NPP2 has lysophospholipase D activity (M Umezo-Gozo et al J Cell Biol 2002; 158:227-33). To determine whether Alk-Smase also has lysophospholipase D activity, a trace amount of ^14C-palmitoyl labelled 1palmitoyl-lysosphosphatidylcholine was incubated with Alk-Smase using the optimal incubation conditions previously described (R D Duan and Å Nilsson Methods Enzymol 2000; 311:276-86). Lipids were then extracted according to known methods (Bligh and Dyer J Biochem Physiol 1959; 37:911-917), and separated on silica gel G plates that were developed in chloroform:methanol:water:acetic acid 25:20:0.3:3. The silica gel separates lysophosphatidylcholine and lysophosphatidic acid that are formed if there is a lysophospholipase D and monoglyceride formed by lysophospholipase C. […] It is therefore further disclosed herein that Alk-Smase may also influence cellular functions by removing lysophosphatidylcholine which can then not be converted to lysophosphatidic acid. Lysophosphatidic acid is a metabolite that stimulates growth of colon tumour cells. Our earlier studies have shown that Alk-Smase is not a general phosphlipase C since it has low activity against phosphatidylcholine (RD Duan, A Nilsson Methods Enzymol 2000; 311:276-86).

[4] = tested on: HT29 human colon cancer cells; assay: Proliferation of HT29 colon cancer cells, WST reagent; assay type: cell-based; details: for effect on proliferation / cell growth of HT29 cells: different doses, 18 h, WST reagent; for effect on DNA synthesis of HT-29 cells: enzyme added to cells in culture
Method: (§1) HT29 human colon cancer cells were incubated in RMPI-1640 medium with L-glutamine, containing antibiotics and 10% (v/v) heat inactivated fetal calf serum. At the exponential growth phase, the cells were incubated with purified rat Alk-Smase at different doses for 18 h. The cell proliferation rates were measured by WST reagent. Results are Mean± SD of three individual duplicate experiments.
Experimental conditions for the antiproliferative inhibition were that HT 29 cells were incubated with rat Alk-Smase at different doses for 18 h. The cell proliferation rates were measured by WST reagent.
as §1, with “L-glutamine” for “L-glutamine,”, “Mean±SD” for “Mean± SD”

[5] = Characterisation of Alk-Smase: sphingomyelin hydrolysis (pH dependence, hydrolytic capacity); details: for hydrolytic capacity (Vmax, Lineweaver-Burk plot): sphingomyelin hydrolysed: by 1 mg of the enzyme in one hour
Method: To distinguish whether the enzyme was different from the Mg dependent neutral Smase, activity at pH 7.5 in the presence of 4 mM Mg2+ in comparison wit pH 8.5 in the presence of 2 mM EDTA was assayed.

## [Zn+2] [Zn2^+]
Human Alk-Smase [1]; read-out: concentration giving 50% inhibition of Alk-Smase activity
  IC50: 15 µM

## [Ca+2] [Ca2^+]
Human Alk-Smase [2]
  effect of increasing concentrations of divalent cation on Alk-Smase activity: slightly increased

## C[C@H](CCC(=O)NCCS(=O)(=O)O)[C@H]1CC[C@H]2[C@@H]3[C@H](O)C[C@@H]4C[C@H](O)CC[C@]4(C)[C@H]3CC[C@]12C [TCDC, taurochenodeoxycholate]
Human Alk-Smase [1]; maximum at the CMC of each bile salt
  maximal stimulating effect of bile salt on human Alk-Smase: far more effective than other bile salts

## O=C(O)CN(CCN(CC(=O)O)CC(=O)O)CC(=O)O [EDTA]
Human Alk-Smase [1]
  inhibition of Alk-Smase by EDTA: not inhibited
Human Alk-Smase [1]; 2 mM EDTA
  reversal of the Zn2+ inhibition of Alk-Smase: Most of the inhibitory effect of Zn2+ was reversed

## Triton X 100
Human Alk-Smase [1]; in the presence or absence of TC (10 mM)
  effect on human Alk-Smase activity: strongly inhibits

## C[C@H](CCC(=O)NCCC[N+](C)(C)CCCS(=O)(=O)[O-])[C@H]1CC[C@H]2[C@@H]3[C@H](O)C[C@@H]4C[C@H](O)CC[C@]4(C)[C@H]3C[C@H](O)[C@]12C [CHAPS]
Human Alk-Smase [1]
  effect on TC stimulation of Alk-Smase: blocked the stimulatory effect of TC
Human Alk-Smase [1]; very low concentration (0.025 mM)
  effect on Alk-Smase activity: only slightly increased the activity

## N[C@@H](CCC(=O)N[C@@H](CS)C(=O)NCC(=O)O)C(=O)O [glutathione]
Human Alk-Smase [1]; 7.5 mM glutathione, reduced form
  reduction of Alk-Smase activity: 1%
Human Alk-Smase [1]; reduced form of glutathione
  effect on Alk-Smase activity (in words): only slightly reduced
Bacterial neutral Smase; 7.5 mM glutathione
  reduction of neutral Smase activity: 98%
Bacterial neutral Smase
  concentration above which neutral Smase activity is sharply abolished: higher than 5 mM

## [Mg+2] [Mg]
Human Alk-Smase [2]
  effect of increasing concentrations of divalent cation on Alk-Smase activity: slightly increased

B1: amino acid 1-415: C-truncated human Alk-Smase, 415 amino acid sequence encoded by cDNA 21-1285 (protein, listed as Homo sapiens)
chain: MRGPAVLLTVALATLLAPGAGAPVQSQGSQNKLLLVSFDGFRWNYDQDVDTPNLDAMARDGVKARYMTPAFVTMTSPCHFTLVTGKYIENHGVVHNMYYNTTSKVKLPYHATLGIQRWWDNGSVPIWITAQRQGLRAGSFFYPGGNVTYQGVAVTRSRKEGIAHNYKNETEWRANIDTVMAWFTEEDLDLVTLYFGEPDSTGHRYGPESPERREMVRQVDRTVGYLRESIARNHLTDRLNLIITSDHGMTTVDKRAGDLVEFHKFPNFTFRDIEFELLDYGPNGMLLPKEGRLEKVYDALKDAHPKLHVYKKEAFPEAFHYANNPRVTPLLMYSDLGYVIHGRINVQFNNGEHGFDNKDMDMKTIFRAVGPSFRAGLEVEPFESVHVYELMCRLLGIVPEANDGHLATLLPMLHT
Cos-7 cells; transfected cells, FIG. 13
  Alk-Smase activity produced, C-truncated versus full sequence cDNA: higher

B2: human Alk-Smase: human intestinal alkaline sphingomyelinase, 458 amino acid protein purified from small intestinal content (protein, listed as Homo sapiens)
chain: MRGPAVLLTVALATLLAPGAGAPVQSQGSQNKLLLVSFDGFRWNYDQDVDTPNLDAMARDGVKARYMTPAFVTMTSPCHFTLVTGKYIENHGVVHNMYYNTTSKVKLPYHATLGIQRWWDNGSVPIWITAQRQGLRAGSFFYPGGNVTYQGVAVTRSRKEGIAHNYKNETEWRANIDTVMAWFTEEDLDLVTLYFGEPDSTGHRYGPESPERREMVRQVDRTVGYLRESIARNHLTDRLNLIITSDHGMTTVDKRAGDLVEFHKFPNFTFRDIEFELLDYGPNGMLLPKEGRLEKVYDALKDAHPKLHVYKKEAFPEAFHYANNPRVTPLLMYSDLGYVIHGRINVQFNNGEHGFDNKDMDMKTIFRAVGPSFRAGLEVEPFESVHVYELMCRLLGIVPEANDGHLATLLPMLHTESALPPDALLVADGPCLPSLSQAKGCMPLSPAAPTPAWLLWCW
Cos-7 cells; Cos-7 cells transfected with pCMV-sports6-Smase, 48 h
  increase of human Alk-Smase activity in the medium: 5 fold
[3]
  formation of lysophosphatidic acid (lysophospholipase D activity): not demonstrated
[3]; in one hour, optimal incubation conditions
  lysophosphatidylcholine degraded to 14C-monoglyceride: 80%
[4]
  effect on proliferation / cell growth of HT29 cells: inhibit proliferation
  effect on DNA synthesis of HT-29 cells: decreased DNA synthesis
[5]
  activity at pH 8.5 with 2 mM EDTA compared with pH 7.5 with 4 mM Mg2+: significantly higher
  hydrolytic capacity (Vmax, Lineweaver-Burk plot): sphingomyelin hydrolysed: 11 mmol
[5]; listed as Alk-Smase
  hydrolytic capacity (Vmax, Lineweaver-Burk plot): sphingomyelin hydrolysed: about 11 mmole
[5]; pH 7.5 versus pH 8.5
  activity at pH 7.5 relative to maximal activity: about 68%

B3: rat Alk-Smase: purified rat intestinal alkaline sphingomyelinase (protein, UniProt Q5EZ72 22-439, looked up)
Ectonucleotide …: GPVQRQQQHKLLLVSFDGFRWNYDQDVETPNLDSMAQEGVKARYMTPAFVTMTSPCHFTLVTGKYIENHGVVHNMFYNTTNKVRLPYHATLGIQRWWDNGSIPIWITAQRQGLKTGSFFYPGGNVTYQGEAVTMSRKEGVLHNYKNETEWRANVDTVMKWFTEEDVSLVTLYFGEPDSTGHKYGPESQERKDMVKQVDRTVGYLRDSIKRHHLTDSLNLIITSDHGMTTVNKKASDLVEFHKFPNFTFRDIEFELLDYGPNGMLIPKEGMLEKVYSVLKDAHPRLHVYKKEDFPKTFHYANNPRITSLLMYSDLGYVIHGRVNVQFNSGEHGFDNQDMDMKTIFRAVGPSFKAGLEVEPFESVHVYELMCQLLGIVPEPNDGHPGVLQPMLRSGSPLSRQHHLVVVLMGILTGLAKVV
[4]
  effect on proliferation / cell growth of HT29 cells: dose-dependently inhibited cell growth
  effect on DNA synthesis of HT-29 cells: decreased DNA synthesis
[4]; listed as rat alkaline Smase
  effect on proliferation / cell growth of HT29 cells: inhibit proliferation

— patent US20070092503A1, “Human alkaline sphingomyelinase and use thereof” (priority 2003, published 2007)
